# Experimental data reported in EP0414533A1, “Use of iodopropargyl esters of alpha-amino acid derivatives as antimicrobial agents” (ROHM AND HAAS COMPANY, priority 1989, dated 1991).
# Where two headings read alike, the source gives them in different places.
# How the values were obtained:
# [1] = test system: Xanthomonas campestris (XAN); assay: In-vitro plant fungicide test; type: cell-based; details: Xanthomonas campestris; 25 ppm; Table IVa; read-out: % Control at 25 ppm XAN
# [2] = test system: Pseudomonas fluorescens (PSFL); assay: Minimum inhibitory concentration (MIC), broth two-fold serial dilution test; details: Pseudomonas fluorescens, IIIB, read-out: MIC (G-) PSFL, trypticase soy broth (complex media); Table IIIb
# [3] = test system: Pseudomonas aerugenosa (PSAE); assay: as above; details: Pseudomonas, IIIB, read-out: MIC (G-) PSAE, trypticase soy broth (complex media); Table IIIb
# From the text: When the test is ready to be done, each vessel in the dilution series, except the first vessel, contains an equal volume of compound free broth. The first vessel contains twice the volume of broth with the starting concentration of test compound. One half of the broth from the first vessel is transferred to the second vessel. After being mixed, one half the resulting volume is removed from the second vessel and transferred to the third vessel. The entire cycle is repeated sufficiently to give a series of concentrations amounting to 500, 250, 125, 63, 31, 16, 8, and 4 ppm (or 100, 50, 25, 12.5, 6.2, 3.1, 1.6, and 0.8), respectively.
# Each vessel is then inoculated with a cell suspension of the appropriate test organism. Bacteria are grown in broth, fungi on agar slants for a time and at a temperature appropriate to the species being tested, and algae are a mixture of green algae and blue-green bacteria grown in a nutrient media. At the end of the growth period, in the case of bacteria, the broth is vortexed to disperse the cells.
# The vessels are then incubated at the appropriate temperature. After the incubation, the vessels are examined for growth/no growth.
# [4] = test system: Phytophthora capsici (PHY); assay: In-vitro plant fungicide test; type: cell-based; details: Phytophthora capsici; 25 ppm; Table IVa; read-out: % Control at 25 ppm PHY
# THREE FUNGI = assay: MIC test against three fungi in Mycophile Broth, pH 5.0, read after 8 days (Table VII); type: cell-based; details: 192 h, serial dilutions from 50 ppm, read after 8 days of incubation
# Piricularia oryzae (PIR) = assay: microbe, parasite or virus in culture; type: cell-based; details: read-out: % Control at 25 ppm PIR
# Pythium ultimum (PYU) = assay: In-vitro plant fungicide test; type: cell-based; details: Globisporangium ultimum; 25 ppm; Table IVa; read-out: % Control at 25 ppm PYU
# [5] = test system: Cochliobolus sativus (HEL); assay: In-vitro plant fungicide test; type: cell-based; details: Bipolaris sorokiniana, 25 ppm; Table IVa; *=Phytotoxic; read-out: % Control at 25 ppm HEL
# Aspergillus niger (ANIG) = assay: Minimum inhibitory concentration (MIC), broth two-fold serial dilution test; type: cell-based; details: Aspergillus niger, IIIB, trypticase soy broth (complex media); Table IIIb; read-out: MIC (F) ANIG
# [6] = test system: Staphylococcus aureus (SAUR); assay: as above; details: Staphylococcus aureus, IIIB, read-out: MIC (G+) SAUR, trypticase soy broth (complex media); Table IIIb
# Escherichia coli (ECOL) = assay: as above; details: Escherichia coli, IIIB, read-out: MIC (G-) ECOL, trypticase soy broth (complex media); Table IIIb
# 8 FUNGI = assay: Microbicides secondary test against 8 fungi on Mycophile Agar at pH 5.0 (Table VI); type: cell-based; parameters: key: 1= no growth; 0= growth of the indicated fungi at dose indicated in ppm; details: for ANIG growth: Aspergillus niger; for APUL growth: Aureobasidium pullulans; for CGLO growth: Chaetomium globosum; for CRES growth: Cladosporium resinae; for GTRA growth: Gloeophyllum trabeum; for PFUN growth: Penicillium funiculosum; for RRUB growth: Rhodotorula rubra; for SSER growth: Sacharomyces cerevisiae
# From the text: The results of the minimum inhibitory concentration (MIC) tests of compounds of this invention are shown in Tables IIIa IIIb, IIIc, V, VI, VII, and VIII against the microorganisms shown in Table IX.
# Septoria nodorum (SEP) = assay: In-vitro plant fungicide test; type: cell-based; details: Parastagonospora nodorum, 25 ppm; Table IVa; read-out: % Control at 25 ppm SEP
compound,measurement,setting,value
"O=C(CNC(=O)c1ccccc1)OCC#CI [Compound 29, N-benzoylglycine iodopropargyl ester]",inhibition of growth at 25 ppm,[1],0%
same,MIC,[2],32 µg/mL
same,MIC,[3],125 µg/mL
same,inhibition of growth at 25 ppm,[4],100%
same,MIC,"THREE FUNGI; Aspergillus niger, read-out: MIC ANIG",1.6 µg/mL
same,MIC,"THREE FUNGI; Aureobasidium pullulans, read-out: MIC APUL",12.5 µg/mL
same,MIC,"THREE FUNGI; Gloeophyllum trabeum, read-out: MIC GTRA",3.2 µg/mL
same,inhibition of growth at 25 ppm,Piricularia oryzae (PIR),100%
same,inhibition of growth at 25 ppm,Pythium ultimum (PYU),100%
same,inhibition of growth at 25 ppm,[5],100%
same,MIC,Aspergillus niger (ANIG),0.5 µg/mL
same,MIC,[6],32 µg/mL
same,MIC,Escherichia coli (ECOL),125 µg/mL
same,ANIG growth,8 FUNGI; 0.2 PPM,0
same,ANIG growth,8 FUNGI; 1.0 PPM,1
same,ANIG growth,8 FUNGI; 2.5 PPM,1
same,ANIG growth,8 FUNGI; 25 PPM,1
same,APUL growth,8 FUNGI; 0.2 PPM,0
same,APUL growth,8 FUNGI; 1.0 PPM,0
same,APUL growth,8 FUNGI; 2.5 PPM,0
same,APUL growth,8 FUNGI; 25 PPM,1
same,CGLO growth,8 FUNGI; 0.2 PPM,0
same,CGLO growth,8 FUNGI; 1.0 PPM,0
same,CGLO growth,8 FUNGI; 2.5 PPM,0
same,CGLO growth,8 FUNGI; 25 PPM,1
same,CRES growth,8 FUNGI; 0.2 PPM,0
same,CRES growth,8 FUNGI; 1.0 PPM,0
same,CRES growth,8 FUNGI; 2.5 PPM,0
same,CRES growth,8 FUNGI; 25 PPM,1
same,GTRA growth,8 FUNGI; 0.2 PPM,0
same,GTRA growth,8 FUNGI; 1.0 PPM,1
same,GTRA growth,8 FUNGI; 2.5 PPM,1
same,GTRA growth,8 FUNGI; 25 PPM,1
same,PFUN growth,8 FUNGI; 0.2 PPM,0
same,PFUN growth,8 FUNGI; 1.0 PPM,0
same,PFUN growth,8 FUNGI; 2.5 PPM,1
same,PFUN growth,8 FUNGI; 25 PPM,1
same,RRUB growth,8 FUNGI; 0.2 PPM,0
same,RRUB growth,8 FUNGI; 1.0 PPM,0
same,RRUB growth,8 FUNGI; 2.5 PPM,0
same,RRUB growth,8 FUNGI; 25 PPM,1
same,SSER growth,8 FUNGI; 0.2 PPM,0
same,SSER growth,8 FUNGI; 1.0 PPM,0
same,SSER growth,8 FUNGI; 2.5 PPM,0
same,SSER growth,8 FUNGI; 25 PPM,1
same,inhibition of growth at 25 ppm,Septoria nodorum (SEP),100%
